# Data from US20160106654A1, “ADDITIVE OR SYNERGISTIC SUNSCREEN, ANTIOXIDANT, AND DNA REPAIR ENZYME COMPOSITION” (US CosmeceuTechs, LLC, priority 2014, published 2016).
# Key:
# [1] = system: Normal human epidermal keratinocytes (NHEK); assay: NHEK, UVB, and DNA damage analysis assay; format: cell-based; conditions: 5 μg/mL; for inhibition at 5 µg/mL: Homo sapiens, light or radiation study; for 8-oxoG inhibition (%) / CPD inhibition (%): n = 2
# [2] = system: Normal human epidermal keratinocytes (NHEK); assay: NHEK, UVB, and protein carbonylation assay; format: cell-based; conditions: 5 μg/mL; for inhibition at 5 µg/mL: Homo sapiens, light or radiation study, n = 2, read-out: PC inhibition (%); for PC inhibition (%): n = 2
# Excerpt: The antioxidant(s) are preferably selected from those which protect against and/or prevent protein carbonylation (PC), protein glycation, lipidation, lipid glycation, protein alkylation, and/or lipid alkylation. Our system of evaluation from US 2006/0171886 A1, which may be modified to include a protein carbonylation, protein glycation, and/or protein alkylation analysis, may be used to evaluate the effectiveness of substances. Test results for selected antioxidants in the protection of human skin against protein carbonylation are shown below in Table 2.
# [3] = system: cyclobutane pyrimidine dimer (CPD) and 8-oxo-7,8-dihydro-2′-deoxyguanosine (8OHdG) formation, and protein carbonylation; assay: Combined protection score (CPD, 8OHdG, protein carbonylation), normalized for concentration; conditions: for Total Score: a maximum total score is 60
# [4] = n = 2, read-out: 8-oxoG inhibition (%)
# [5] = n = 2, read-out: CPD inhibition (%)
Structure (SMILES),"inhibition at 5 µg/mL [1, 4] [%]","inhibition at 5 µg/mL [1, 5] [%]",inhibition at 5 µg/mL [2] [%],8-oxoG inhibition (%) [1] [%],CPD inhibition (%) [1] [%],8oxo Score [3],CPDs Score [3],PC Score [3],Total Score [3],PC inhibition (%) [2] [%]
O=C(/C=C/c1ccc(O)c(O)c1)O[C@@H]1C[C@](O)(C(=O)O)C[C@@H](O)[C@H]1O [Chlorogenic Acid],52.5,36,0,–,–,–,–,–,–,–
O=C(O[C@@H]1Cc2c(O)cc(O)cc2O[C@@H]1c1cc(O)c(O)c(O)c1)c1cc(O)c(O)c(O)c1 [Epigallocatechin Gallate],–,–,–,41.9,44.5,18,15,3,36,100
COc1cc(/C=C/C(=O)O)ccc1O [Ferulic Acid],41.1,15.7,0,–,–,19,17,10,46,–
O=C1O[C@H]([C@@H](O)CO)C(O)=C1O [L-Ascorbic Acid],44.1,33.1,87.2,–,–,20,16,0,36,–
NCCC(=O)N[C@@H](Cc1cnc[nH]1)C(=O)O [L-Carnosine],–,–,–,45.0,51.6,17,18,17,52,100
C[N+](C)(C)[C@@H](Cc1c[nH]c(=S)[nH]1)C(=O)[O-] [L-Ergothioneine],–,–,–,–,–,14,17,16,47,100
O=c1c(O)c(-c2ccc(O)c(O)c2)oc2cc(O)cc(O)c12 [Quercetin],42.4,45.7,0,–,–,–,–,–,–,–
Oc1ccc(C=Cc2cc(O)cc(O)c2)cc1 [Resveratrol],40.6,51.9,0,–,–,18,17,12,47,–
Cc1c(C)c2c(c(C)c1O)CC[C@@](C)(CCC[C@H](C)CCC[C@H](C)CCCC(C)C)O2 [α-Tocopherol],–,–,–,–,–,18,16,12,46,–
